One test deals with TLR2 (Homo sapiens, UniProt O60603). Put plainly: TLR2 agonist screening assay, HEK-Blue TLR2 reporter cell line (NF-kB-driven SEAP, absorbance at 600 nm). It counts as cell-based. Set-up: host or cells: HEK-293 (HEK-Blue TLR2 reporter cell line). The following applies: HEK-Blue TLR2 reporter cells, agonist mode; average of all runs (Table 3). An excerpt: TLRs are a class of cell-surface receptors expressed on many different cell types that recognize conserved structural motifs present on pathogen-derived molecules. TLR2 recognizes bacteria-derived lipopeptides. […] Provided herein is an assay to identify and characterize the binding affinities of novel TLR2 agonists.
Sequence of TLR2 (O60603 21-784): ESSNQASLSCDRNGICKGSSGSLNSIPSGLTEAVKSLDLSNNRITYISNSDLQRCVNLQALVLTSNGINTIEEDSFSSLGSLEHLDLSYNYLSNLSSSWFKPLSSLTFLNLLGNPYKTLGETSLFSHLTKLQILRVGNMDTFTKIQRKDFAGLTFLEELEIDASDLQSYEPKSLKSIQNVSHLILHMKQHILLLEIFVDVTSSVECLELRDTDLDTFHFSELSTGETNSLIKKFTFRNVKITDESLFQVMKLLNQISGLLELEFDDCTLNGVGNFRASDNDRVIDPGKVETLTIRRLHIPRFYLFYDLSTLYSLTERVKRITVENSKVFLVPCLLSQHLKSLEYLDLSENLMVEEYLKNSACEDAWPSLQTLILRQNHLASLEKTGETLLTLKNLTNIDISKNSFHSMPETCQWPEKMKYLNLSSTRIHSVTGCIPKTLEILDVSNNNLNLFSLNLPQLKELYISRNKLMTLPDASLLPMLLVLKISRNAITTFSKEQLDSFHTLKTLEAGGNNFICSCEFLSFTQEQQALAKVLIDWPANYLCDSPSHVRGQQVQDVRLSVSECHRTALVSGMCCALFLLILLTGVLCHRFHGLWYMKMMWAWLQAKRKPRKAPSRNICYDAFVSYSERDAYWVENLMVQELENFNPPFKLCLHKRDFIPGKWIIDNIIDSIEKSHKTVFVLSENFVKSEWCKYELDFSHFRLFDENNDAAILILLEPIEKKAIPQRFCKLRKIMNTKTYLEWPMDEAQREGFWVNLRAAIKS
The in vitro TLR2 assay consists of a cell line that responds to TLR2 engagement by producing a factor that elicits a color change in the culture media and can be readily measured by various colorimetric detection methods. This assay enables the identification of existing and novel compounds that engage TLR2 and, by virtue of compound dilution, to approximate the binding affinity of these compounds for eliciting a TLR2 signal.
The TLR2 screening assay was developed from the HEK-Blue TLR2 reporter cell line that is commercially available from Invivogen (San Diego, CA). The reporter cell line consists of HEK-293 embryonic kidney cells that have been engineered to express TLR2 and with an NF-kB promoter driving expression of Secreted Alkaline Phosphatase (SEAP). Upon engagement of TLR2, downstream signaling results in activation of NF-kB pathway activation and secretion of SEAR In the presence of the detection reagent in the tissue culture media, SEAP mediates a color change from clear to indigo that is readily assessed by measuring absorbance at 600 nm.
HEK-Blue TLR2 reporter cells are cultured according to manufacturer's specifications until a confluence of 70-90%, at which point the cells are trypsinized, counted, and plated into 96-well plates at approximately 40,000 cells per well. Cells are cultured overnight and the TLR2 assay is performed 16-24 hours post-plating into 96 well plates.
Compounds are diluted from stocks dissolved in DMSO and a 1% DMSO final concentration is maintained in all testing wells.
The assay consists of removing the cell culture media after cells have been cultured overnight and replacing the media with HEK-Blue Detection media with TLR2 agonists at indicated dilution schemes. The Detection media contains a chemical substrate that turns from clear to indigo when acted upon by SEAP. The HEK-Blue cells are then cultured overnight in Detection media with diluted compounds. After overnight culture with agonists, each well of the plate is assayed in a plate reader at 600 nanometer absorbance.
• (1) HEK-Blue TLR2 cells are diluted in complete DME culture medium and plated into 96-well plates at 40,000 cells per well and cultured overnight. • (2) After 16-24 hours in culture, the media is removed and replaced with 200 microliters per well of HEK-Blue Detection media. • (3) TLR2 agonists are diluted 100-fold from DMSO stocks into each well, yielding a final DMSO concentration of 1% in all wells. • (3) Treated cells are cultured overnight and the following day are assayed in plate reader for Absorbance at 600 nanometer.
Following assay measurements utilizing either HEK-Blue detection or cytokine release, all data is analyzed with the GraphPad Prism8 statistical package to determine EC50, binding and activity metrics for the TLR2 modulators.
Data is generated using protocol described in Example 44.
By EC50 is commonly meant the midpoint of the concentration-response curve. On to `CCCCCCCC(=O)N1CCN(C(=O)c2ccc(C(=O)N3C[C@@H](C(=O)N[C@H]4C[C@@H]4c4ccccc4)[C@H](C(=O)N[C@H]4C[C@@H]4c4ccccc4)C3)cc2)CC1C(=O)N[C@H]1C[C@@H]1c1ccccc1` (some centres unmarked) [Compound 040], for which the EC50 is > 1000 nM.

Take `O=C(NC1CCCCCCC1)[C@H]1CCN(C(=O)c2ccc(C(=O)N3C[C@@H](C(=O)N[C@H]4C[C@@H]4c4ccccc4)[C@H](C(=O)N[C@H]4C[C@@H]4c4ccccc4)C3)cc2)C1` [Compound 003]: the EC50 is > 1000 nM.

The same test, now with this note: HEK-Blue TLR2 reporter cells, agonist mode; average of all runs (Table 4).
For the molecule `CCCCCCCCCCCCCCC(=O)N1CCC[C@H](NC(=O)c2ccc(C(=O)N3C[C@@H](C(=O)N[C@H]4C[C@@H]4c4ccccc4)[C@H](C(=O)N[C@H]4C[C@@H]4c4ccccc4)C3)cc2)C1` [Compound 125, (3S,4S)-1-(4-(((S)-1-pentadecanoylpiperidin-3-yl)carbamoyl)benzoyl)-N3,N4-bis((1S,2R)-2-phenylcyclopropyl)pyrrolidine-3,4-dicarboxamide], the EC50 is > 1000 nM.

In turn, `CCCCCCCCCCCCCCNC(=O)[C@@H]1CN(C(=O)c2ccc(C(=O)N3C[C@@H](C(=O)N[C@H]4C[C@@H]4c4ccccc4)[C@H](C(=O)N[C@H]4C[C@@H]4c4ccccc4)C3)cc2)C[C@H]1O` (single isomer, unassigned) [Compound 105, (3S,4S)-1-(4-((3R*,4S*)-3-hydroxy-4-(tetradecylcarbamoyl)pyrrolidine-1-carbonyl)benzoyl)-N3,N4-bis((1S,2R)-2-phenylcyclopropyl)pyrrolidine-3,4-dicarboxamide] registered an EC50 of 51 to 350 nM.

`CCCCCCCCCCCCCCNC(=O)[C@H]1CN(C(c2ccc(C(=O)N3C[C@@H](C(=O)N[C@H]4C[C@@H]4c4ccccc4)[C@H](C(=O)N[C@H]4C[C@@H]4c4ccccc4)C3)cc2)C(F)(F)F)CCN1C` (stereo partly drawn) [Compound 132, (3S,4S)—N3,N4-bis((1S,2R)-2-phenylcyclopropyl)-1-(4-(2,2,2-trifluoro-1-((R)-4-methyl-3-(tetradecylcarbamoyl)piperazin-1-yl)ethyl)benzoyl)pyrrolidine-3,4-dicarboxamide] displayed an EC50 of 51 to 350 nM.

`CCCCCCCCCCCCCCNC(=O)C[C@H]1CCCN1C(=O)c1ccc(C(=O)N2C[C@@H](C(=O)N[C@H]3C[C@@H]3c3ccccc3)[C@H](C(=O)N[C@H]3C[C@@H]3c3ccccc3)C2)cc1` [Compound 127, (3S,4S)-1-(4-((R)-2-(2-oxo-2-(tetradecylamino)ethyl)pyrrolidine-1-carbonyl)benzoyl)-N3,N4-bis((1S,2R)-2-phenylcyclopropyl) pyrrolidine-3,4-dicarboxamide] gave an EC50 of 51 to 350 nM.

On to `CCCCCNC(=O)[C@@H]1CN(C(=O)c2ccc(C(=O)N3C[C@@H](C(=O)N[C@H]4C[C@@H]4c4ccccc4)[C@H](C(=O)N[C@H]4C[C@@H]4c4ccccc4)C3)cc2)CCN1C(C)=O` [Compound 264, (3S,4S)-1-(4-((S)-4-acetyl-3-(pentylcarbamoyl)piperazine-1-carbonyl)benzoyl)-N3,N4-bis((1S,2R)-2-phenylcyclopropyl) pyrrolidine-3,4-dicarboxamide], for which the EC50 is > 1000 nM.

Turning to `CCCCCCCCCCCNC(=O)[C@@H]1CN(C(=O)c2ccc(C(=O)N3C[C@@H](C(=O)N[C@H]4C[C@@H]4c4ccccc4)[C@H](C(=O)N[C@H]4C[C@@H]4c4ccccc4)C3)cc2)CCN1C(C)=O` [Compound 256, (3S,4S)-1-(4-((S)-4-acetyl-3-(undecylcarbamoyl)piperazine-1-carbonyl)benzoyl)-N3,N4-bis((1S,2R)-2-phenylcyclopropyl) pyrrolidine-3,4-dicarboxamide], the EC50 is > 1000 nM.

For the molecule `CCCCCCCCCCCCCCNC(=O)[C@@H]1CN(C(=O)c2ccc(C(=O)N3C[C@@H](C(=O)N[C@H]4C[C@@H]4c4ccccc4)[C@H](C(=O)N[C@H]4C[C@@H]4c4ccccc4)C3)cc2)CCN1C(=O)C(C)C` [Compound 250, (3S,4S)-1-(4-((S)-4-isobutyryl-3-(tetradecylcarbamoyl)piperazine-1-carbonyl)benzoyl)-N3,N4-bis((1S,2R)-2-phenylcyclopropyl)pyrrolidine-3,4-dicarboxamide], the EC50 is > 1000 nM.

The molecule `CCCCCCCCCCCCCCOC(=O)N[C@H]1CN(C(=O)c2ccc(C(=O)N3C[C@@H](C(=O)N[C@H]4C[C@@H]4c4ccccc4)[C@H](C(=O)N[C@H]4C[C@@H]4c4ccccc4)C3)cc2)C[C@@H]1OC` [Compound 218, Tetradecyl ((3S,4S)-1-(4-((3S,4S)-3,4-bis(((1S,2R)-2-phenylcyclopropyl)carbamoyl)pyrrolidine-1-carbonyl)benzoyl)-4-methoxypyrrolidin-3-yl)carbamate] returned an EC50 of 351 to 1000 nM.

Turning to `CCCCCCCCCCCCCCCN[C@H]1CN(C(=O)c2ccc(C(=O)N3C[C@@H](C(=O)N[C@H]4C[C@@H]4c4ccccc4)[C@H](C(=O)N[C@H]4C[C@@H]4c4ccccc4)C3)cc2)C[C@@H]1O` [Compound 087, (3S,4S)-1-(4-((3S,4S)-3-hydroxy-4-(pentadecylamino)pyrrolidine-1-carbonyl)benzoyl)-N3,N4-bis((1S,2R)-2-phenylcyclopropyl)pyrrolidine-3,4-dicarboxamide], the EC50 is > 1000 nM.

With `CCCCCCCC[C@H]1CN(C(=O)c2ccc(C(=O)N3C[C@@H](C(=O)N[C@H]4C[C@@H]4c4ccccc4)[C@H](C(=O)N[C@H]4C[C@@H]4c4ccccc4)C3)cc2)C[C@H]1C(=O)NCCCCCC` (relative stereo) [Compound 086, (3S,4S)-1-(4-((3S*,4R*)-3-(hexylcarbamoyl)-4-octylpyrrolidine-1-carbonyl)benzoyl)-N3,N4-bis((1S,2R)-2-phenylcyclopropyl)pyrrolidine-3,4-dicarboxamide], the EC50 is > 1000 nM.

For `CCCCCCCCCC(=O)N[C@@H](CNc1nc2ccc(C(=O)N3C[C@@H](C(=O)N[C@H]4C[C@@H]4c4ccccc4)[C@H](C(=O)N[C@H]4C[C@@H]4c4ccccc4)C3)cc2o1)C(=O)NCCCCCC` [Compound 261, (3S,4S)-1-(2-(((S)-2-decanamido-3-(hexylamino)-3-oxopropyl)amino)benzo[d]oxazole-6-carbonyl)-N3,N4-bis((1S,2R)-2-phenylcyclopropyl)pyrrolidine-3,4-dicarboxamide], the EC50 was > 1000 nM.

Molecule `CCCCCCCCCCCCCNC(=O)N[C@H]1CN(c2ncc(-c3ccc(C(=O)N4C[C@@H](C(=O)N[C@H]5C[C@@H]5c5ccccc5)[C@H](C(=O)N[C@H]5C[C@@H]5c5ccccc5)C4)cc3)s2)C[C@@H]1OC` [Compound 244, (3S,4S)-1-(4-(2-((3S,4S)-3-methoxy-4-(3-tridecylureido)pyrrolidin-1-yl)thiazol-5-yl)benzoyl)-N3,N4-bis((1S,2R)-2-phenylcyclopropyl)pyrrolidine-3,4-dicarboxamide] gave a 50% effective concentration (EC50) of 351 to 1000 nM.

Regarding `CCCCCCCCCCCCCCNC(=O)C1CC(=O)N(Cc2ccc(C(=O)N3C[C@@H](C(=O)N[C@H]4C[C@@H]4c4ccccc4)[C@H](C(=O)N[C@H]4C[C@@H]4c4ccccc4)C3)cc2)C1` (stereo partly drawn) [Compound 100, (3S,4S)-1-(4-((2-oxo-4-(tetradecylcarbamoyl)pyrrolidin-1-yl)methyl)benzoyl)-N3,N4-bis((1S,2R)-2-phenylcyclopropyl)pyrrolidine-3,4-dicarboxamide], the EC50 is > 1000 nM.

In the case of `CCCCCCCCCCCCCCC(=O)NC1CCN(C(=O)c2cccc(C(=O)N3C[C@@H](C(=O)N[C@H]4C[C@@H]4c4ccccc4)[C@H](C(=O)N[C@H]4C[C@@H]4c4ccccc4)C3)c2)CC1` [Compound 166, (3S,4S)-1-(3-(4-pentadecanamidopiperidine-1-carbonyl)benzoyl)-N3,N4-bis((1S,2R)-2-phenylcyclopropyl)pyrrolidine-3,4-dicarboxamide], the EC50 was > 1000 nM.

`CCCCCCCCCC(=O)N[C@@H](Cc1nnc(-c2ccc(C(=O)N3C[C@@H](C(=O)N[C@H]4C[C@@H]4c4ccccc4)[C@H](C(=O)N[C@H]4C[C@@H]4c4ccccc4)C3)cc2)s1)C(=O)NCCCCCC` [Compound 243, (3S,4S)-1-(4-(5-((S)-2-decanamido-3-(hexylamino)-3-oxopropyl)-1,3,4-thiadiazol-2-yl)benzoyl)-N3,N4-bis((1S,2R)-2-phenylcyclopropyl)pyrrolidine-3,4-dicarboxamide] displayed an EC50 of 0.1 to 50 nM.

Source of the values: patent US11951094B2, “TLR2 modulator compounds, pharmaceutical compositions and uses thereof” (Axial Therapeutics, Inc., priority 2020, dated 2024).
